IC50 data for 28 compounds are collected here from US20250179061A1 (SIRONAX LTD., priority 2022, published 2025).

Where two headings read alike, the source gives them in different places.

In the test the test system is HT-29 cells. Nature of the test: HT-29 necroptosis cell viability assay (TNF-α/SMAC mimetic/zVAD-FMK, CellTiter-Glo). Type of test: cell-based. Conditions: Homo sapiens, read-out: Activity. Put shortly:
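HT-29 cells (~5,000/well, overnight) in FBS-free McCoy's 5A with TNF-α 10 ng/ml, SMAC mimetic 6 μM and zVAD-FMK 10 μM plus 10-point 1:3 compound titration, 20 h at 37°C. ATP measured by CellTiter-Glo luminescence; IC50 as geometric mean of duplicates.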
Background: ATP-based viability assays read luminescence as a measure of living cells.

Setting [1] is: HT-29 cells stimulated with TNF-α (10 ng/ml), SMAC mimetic (6 μM) and zVAD-FMK (10 μM), 20 hours, CellTiter-Glo ATP luminescence, geometric mean IC50 from 10 points.
[2] abbreviates: HT-29, HT-29 necroptosis cell viability assay, class symbols for IC50.

Take `Cc1nc(C2(F)CC(O)C2)sc1Oc1ccc(-n2ncn(Cc3c(F)cccc3F)c2=O)cc1F` (stereo not shown) [Example 110, 4-(2,6-difluorobenzyl)-2-(3-fluoro-4-((2-(1-fluoro-3-hydroxycyclobutyl)-4-methylthiazol-5-yl)oxy)phenyl)-2,4-dihydro-3H-1,2,4-triazol-3-one]: the IC50 under setting [1] was less than 100 nM.

For `Cc1nc(C2(F)CC(OCc3ccccc3)C2)sc1Oc1ccc(-n2ncn(Cc3c(F)cccc3F)c2=O)cc1F` (stereo not shown) [Example 111, 2-(4-((2-(3-(benzyloxy)-1-fluorocyclobutyl)-4-methylthiazol-5-yl)oxy)-3-fluorophenyl)-4-(2,6-difluorobenzyl)-2,4-dihydro-3H-1,2,4-triazol-3-one], the IC50 under setting [1] was less than 100 nM.

With `Cc1nc(C2(O)CC(OCc3ccccc3)C2)sc1Oc1ccc(-n2ncn(Cc3c(F)cccc3F)c2=O)cc1F` (stereo not shown) [Example 112, 2-(4-((2-(3-(benzyloxy)-1-hydroxycyclobutyl)-4-methylthiazol-5-yl)oxy)-3-fluorophenyl)-4-(2,6-difluorobenzyl)-2,4-dihydro-3H-1,2,4-triazol-3-one], the IC50 under setting [1] lay in the range of 100 to 1000 nM.

For `Cc1nc(C2CC(C(N)=O)C2)sc1Oc1ccc(-n2ncn(Cc3c(F)cccc3F)c2=O)cc1F` (stereo not shown) [Example 113, 3-(5-(4-(4-(2,6-difluorobenzyl)-5-oxo-4,5-dihydro-1H-1,2,4-triazol-1-yl)-2-fluorophenoxy)-4-methylthiazol-2-yl)cyclobutane-1-carboxamide], the IC50 under setting [2] is less than 100 nM.

Consider `Cc1nc(C2(O)COC2)sc1Oc1ccc(-n2nc3n(c2=O)[C@H](c2ccccc2)CC3)cc1F` [Example 114, (S)-2-(3-fluoro-4-((2-(3-hydroxyoxetan-3-yl)-4-methylthiazol-5-yl)oxy)phenyl)-5-phenyl-2,5,6,7-tetrahydro-3H-pyrrolo[2,1-c][1,2,4]triazol-3-one], for which the IC50 under setting [2] was less than 100 nM.

For the compound `Cc1nc(Oc2ccc(-n3ncn(Cc4c(F)cccc4F)c3=O)c(F)c2)n(C)c1C(N)=O` [Example 115, 2-(4-(4-(2,6-difluorobenzyl)-5-oxo-4,5-dihydro-1H-1,2,4-triazol-1-yl)-3-fluorophenoxy)-1,4-dimethyl-1H-imidazole-5-carboxamide], under setting [2], the IC50 was in the range of 1000 to 10000 nM.

Turning to `Cc1nc(C(F)(F)C(N)=O)sc1Oc1ccc(-n2ncn(Cc3c(F)cccc3F)c2=O)cc1F` [Example 116, 2-(5-(4-(4-(2,6-difluorobenzyl)-5-oxo-4,5-dihydro-1H-1,2,4-triazol-1-yl)-2-fluorophenoxy)-4-methylthiazol-2-yl)-2,2-difluoroacetamide], the IC50 under setting [2] is less than 100 nM.

Turning to `CCOC(=O)C(=O)c1nc(C)c(Oc2ccc(-n3ncn(Cc4c(F)cccc4F)c3=O)cc2F)s1` [Example 117, ethyl 2-(5-(4-(4-(2,6-difluorobenzyl)-5-oxo-4,5-dihydro-1H-1,2,4-triazol-1-yl)-2-fluorophenoxy)-4-methylthiazol-2-yl)-2-oxoacetate], the IC50 under setting [2] lay within 100 to 1000 nM.

With `CCOC(=O)C(F)(F)c1nc(C)c(Oc2ccc(-n3ncn(Cc4c(F)cccc4F)c3=O)cc2F)s1` [Example 118, ethyl 2-(5-(4-(4-(2,6-difluorobenzyl)-5-oxo-4,5-dihydro-1H-1,2,4-triazol-1-yl)-2-fluorophenoxy)-4-methylthiazol-2-yl)-2,2-difluoroacetate], the IC50 under setting [2] was in the range of 100 to 1000 nM.

In the case of `Cc1nc(C2CC(C)(O)C2)sc1Oc1ccc(-n2ncn(Cc3c(F)cccc3F)c2=O)cc1F` (stereo not shown) [Example 119, 4-(2,6-difluorobenzyl)-2-(3-fluoro-4-((2-(3-hydroxy-3-methylcyclobutyl)-4-methylthiazol-5-yl)oxy)phenyl)-2,4-dihydro-3H-1,2,4-triazol-3-one], the IC50 under setting [1] was less than 100 nM.

As for `Cc1nc(C#N)c(Oc2ccc(-n3ncn(Cc4c(F)cccc4F)c3=O)cc2F)s1` [Example 120, 5-(4-(4-(2,6-difluorobenzyl)-5-oxo-4,5-dihydro-1H-1,2,4-triazol-1-yl)-2-fluorophenoxy)-2-methylthiazole-4-carbonitrile], under setting [2], the IC50 was less than 100 nM.

As for `Cn1cc(C#N)nc1Oc1ccc(-n2ncn(Cc3c(F)cccc3F)c2=O)cc1F` [Example 121, 2-(4-(4-(2,6-difluorobenzyl)-5-oxo-4,5-dihydro-1H-1,2,4-triazol-1-yl)-2-fluorophenoxy)-1-methyl-1H-imidazole-4-carbonitrile], the IC50 under setting [2] lay within 100 to 1000 nM.

As for `Cc1nc(C#N)c(C)n1Cc1ccc(-n2ncn(Cc3c(F)cccc3F)c2=O)cc1F` [Example 122, 1-(4-(4-(2,6-difluorobenzyl)-5-oxo-4,5-dihydro-1H-1,2,4-triazol-1-yl)-2-fluorobenzyl)-2,5-dimethyl-1H-imidazole-4-carbonitrile], under setting [2], the IC50 is less than 100 nM.

Turning to `Cc1nc(C)n(Cc2ccc(-n3ncn(Cc4c(F)cccc4F)c3=O)cc2F)c1C#N` [Example 123, 1-(4-(4-(2,6-difluorobenzyl)-5-oxo-4,5-dihydro-1H-1,2,4-triazol-1-yl)-2-fluorobenzyl)-2,4-dimethyl-1H-imidazole-5-carbonitrile], the IC50 under setting [2] lay within 100 to 1000 nM.

Turning to `Cc1cc(C#N)c(C)n1Cc1ccc(-n2ncn(Cc3c(F)cccc3F)c2=O)cc1F` [Example 124, 1-(4-(4-(2,6-difluorobenzyl)-5-oxo-4,5-dihydro-1H-1,2,4-triazol-1-yl)-2-fluorobenzyl)-2,5-dimethyl-1H-pyrrole-3-carbonitrile], the IC50 under setting [2] is less than 100 nM.

Turning to `Cc1nc(C#N)cn1Cc1ccc(-n2ncn(Cc3c(F)cccc3F)c2=O)cc1F` [Example 125, 1-(4-(4-(2,6-difluorobenzyl)-5-oxo-4,5-dihydro-1H-1,2,4-triazol-1-yl)-2-fluorobenzyl)-2-methyl-1H-imidazole-4-carbonitrile], under setting [2], the IC50 was less than 100 nM.

For `Cc1nc(C(C)(C)O)c(Oc2ccc(-n3ncn(Cc4c(F)cccc4F)c3=O)cc2F)s1` [Example 126, 4-(2,6-difluorobenzyl)-2-(3-fluoro-4-((4-(2-hydroxypropan-2-yl)-2-methylthiazol-5-yl)oxy)phenyl)-2,4-dihydro-3H-1,2,4-triazol-3-one], under setting [2], the IC50 lay within 100 to 1000 nM.

With `COC(=O)c1nc(C)sc1Oc1ccc(-n2ncn(Cc3c(F)cccc3F)c2=O)cc1F` [Example 127, methyl 5-(4-(4-(2,6-difluorobenzyl)-5-oxo-4,5-dihydro-1H-1,2,4-triazol-1-yl)-2-fluorophenoxy)-2-methylthiazole-4-carboxylate], the IC50 under setting [2] is less than 100 nM.

As for `COC(=O)c1ncsc1Oc1ccc(-n2ncn(Cc3c(F)cccc3F)c2=O)cc1F` [Example 128, methyl 5-(4-(4-(2,6-difluorobenzyl)-5-oxo-4,5-dihydro-1H-1,2,4-triazol-1-yl)-2-fluorophenoxy)thiazole-4-carboxylate], the IC50 under setting [2] is 100 to 1000 nM.

As to `Cc1nc(C(C)(C)O)sc1Oc1ccc(-n2ncn(Cc3ncccc3C#N)c2=O)cc1F` [Example 129, 2-((1-(3-fluoro-4-((2-(2-hydroxypropan-2-yl)-4-methylthiazol-5-yl)oxy)phenyl)-5-oxo-1,5-dihydro-4H-1,2,4-triazol-4-yl)methyl)nicotinonitrile], the IC50 under setting [2] lay in the range of 100 to 1000 nM.

Regarding `Cn1nc(C(C)(C)O)cc1Oc1ccc(-n2nc3n(c2=O)C(c2ccccc2)CC3)cc1F` (stereo not shown) [Example 130, 2-(3-fluoro-4-((3-(2-hydroxypropan-2-yl)-1-methyl-1H-pyrazol-5-yl)oxy)phenyl)-5-phenyl-2,5,6,7-tetrahydro-3H-pyrrolo[2,1-c][1,2,4]triazol-3-one], the IC50 under setting [2] is less than 100 nM.

In the case of `Cn1cc(C(C)(C)O)nc1Oc1ccc(-n2ncn(Cc3c(F)cccc3F)c2=O)cc1F` [Example 131, 4-(2,6-difluorobenzyl)-2-(3-fluoro-4-((4-(2-hydroxypropan-2-yl)-1-methyl-1H-imidazol-2-yl)oxy)phenyl)-2,4-dihydro-3H-1,2,4-triazol-3-one], the IC50 under setting [2] is more than 10000 nM.

Take `Cn1c(C(C)(C)O)cnc1Oc1ccc(-n2ncn(Cc3c(F)cccc3F)c2=O)cc1F` [Example 132, 4-(2,6-difluorobenzyl)-2-(3-fluoro-4-((5-(2-hydroxypropan-2-yl)-1-methyl-1H-imidazol-2-yl)oxy)phenyl)-2,4-dihydro-3H-1,2,4-triazol-3-one]: the IC50 under setting [2] lay in the range of 1000 to 10000 nM.

With `Cc1nc(C(C)(C)O)n(C)c1Oc1ccc(-n2ncn(Cc3c(F)cccc3F)c2=O)cc1F` [Example 133, 4-(2,6-difluorobenzyl)-2-(3-fluoro-4-((2-(2-hydroxypropan-2-yl)-1,4-dimethyl-1H-imidazol-5-yl)oxy)phenyl)-2,4-dihydro-3H-1,2,4-triazol-3-one], under setting [2], the IC50 fell in the range of 100 to 1000 nM.

As for `Cn1nc(C(C)(C)O)cc1Oc1ccc(-n2ncn(Cc3c(F)cccc3F)c2=O)cc1F` [Example 134, 4-(2,6-difluorobenzyl)-2-(3-fluoro-4-((3-(2-hydroxypropan-2-yl)-1-methyl-1H-pyrazol-5-yl)oxy)phenyl)-2,4-dihydro-3H-1,2,4-triazol-3-one], the IC50 under setting [2] was less than 100 nM.

With `Cc1nc(C(C)(C)O)c(C)n1Cc1ccc(-n2ncn(Cc3c(F)cccc3F)c2=O)cc1F` [Example 135, 4-(2,6-difluorobenzyl)-2-(3-fluoro-4-((4-(2-hydroxypropan-2-yl)-2,5-dimethyl-1H-imidazol-1-yl)methyl)phenyl)-2,4-dihydro-3H-1,2,4-triazol-3-one], the IC50 under setting [2] was in the range of 1000 to 10000 nM.

As for `Cc1nc(C(C)(C)O)cn1Cc1ccc(-n2nc3n(c2=O)C(c2ccccc2)CC3)cc1F` (stereo not shown) [Example 136, 2-(3-fluoro-4-((4-(2-hydroxypropan-2-yl)-2-methyl-1H-imidazol-1-yl)methyl)phenyl)-5-phenyl-2,5,6,7-tetrahydro-3H-pyrrolo[2,1-c][1,2,4]triazol-3-one], under setting [2], the IC50 is 1000 to 10000 nM.

As to `Cc1nc(C(C)(C)O)cn1Cc1ccc(-n2ncn(Cc3c(F)cccc3F)c2=O)cc1F` [Example 137, 4-(2,6-difluorobenzyl)-2-(3-fluoro-4-((4-(2-hydroxypropan-2-yl)-2-methyl-1H-imidazol-1-yl)methyl)phenyl)-2,4-dihydro-3H-1,2,4-triazol-3-one], the IC50 under setting [2] was 1000 to 10000 nM.
